Results: publication PMC10510102, “Efficient Ligand Discovery Using Sulfur(VI) Fluoride Reactive Fragments” (ACS Chemical Biology, 2023)

Experiments:
CAII [1] = biological target: T1, CAII (Homo sapiens, UniProt P00918); assay: Kinetic analyses of covalent modification, intact protein LC-MS; format: binding; set-up: purchased Sigma Aldrich C6624-500UG; host or cells: E. coli; conditions: 0.5 μM CAII; 5-100 μM SF; 0-24 h; 20 °C
Protocol: The kinetics of binding were investigated by incubation of the resynthesized and purified SFs 2b–e with CAII at a range of concentrations and analysis by intact protein LC–MS over a 24 h period (see Figure S9). The concentration–response was analyzed based on a two-step model of reversible ligand (L) binding and subsequent irreversible covalent modification of the protein (P) (P + L ⇌ P·L → PL) (see Figure S10).[24] Time courses were fit to a single exponential function to give a kobs for each concentration (Figure 3d). These were then fitted using a Michaelis–Menten model to determine kinact (corresponding to the rate of covalent-bond formation) and KI (corresponding to the recognition of the ligand for the protein pocket) (Figure 3e,f). […]. This is consistent with the strong binding of aryl sulfonamides to the CAII Zn^2+ binding pocket.[33] […] The slow rate of the reaction may be attributed to a suboptimal trajectory of the SF group toward the His64 residue in the reversible bound conformation and/or low nucleophilicity of the residue.[14]
The (resynthesized and purified) SF hits (2b–e, 10 mM) were plated into seven 384-well plates with DMSO to make up identical plates with final concentrations of 100, 50, 20, 10, or 5 μM after adding 15 μL of protein stock solution per well. The percentage of DMSO was kept constant. Purified CAII was subsequently added across all plates. Final concentrations were 0.5 μM protein; 100, 50, 20, 10, or 5 μM SF. The plates were sealed and centrifuged, and the first six plates were immediately queued for analysis by intact protein LC–MS at a temperature of 20 °C with the final plate paused for a 24 h timepoint.
5. CAII – kinetic analyzes
5.1. Protocol for kinetic analyzes (CAII)
The (resynthesized and purified) SF hits (2b–e) were plated into seven Greiner 384 white low volume plate from a 10 mM source in DMSO. Differing volumes were added such that the final concentrations for each compound would be: 100, 50, 20, 10, or 5 µM after adding 15 µL of protein stock solution per well. Volumes of DMSO were made to be consistent for every well. Purified CAII diluted from original stock into a buffer made up of HEPES (pH 7.5, 25 mM) and NaCl (50 mM) in distilled MS-grade water (15 µL per well) was subsequently added across the plates. Final concentrations: 0.5 µM protein; 100, 50, 20, 10, or 5 µM SF. The plates were sealed, centrifuged (1 min, 1000 rpm), and the first six plates were immediately queued for analysis by intact protein LC-MS at a temperature of 20 °C with the final plate paused for a 24 h timepoint. The resulting modification yields were plotted in GraphPad Prism (Version 5.0.4) software against the time of sampling.11 Non-linear regression analyzes were conducted using a ‘one-phase association’ model, with the y=0 value constrained to ‘0’ and plateau value constrained to ‘100’. The observed rate constants (kobs, value ‘K’ in GraphPad) were extracted for each compound at each concentration, then replotted against the corresponding compound concentration. Further non-linear regression analyzes were conducted using a ‘Michaelis-Menten’ model, from which kinact values (‘Vmax’ in GraphPad) and KI values (‘Km’) were extracted. […]
To a Labcyte 384LDV plate containing 96 amine functionalized fragments (10 mM) in DMSO (5 µL per well) was added a stock solution of OSu 2a (10 mM) and NEM (30 mM) in DMSO (5 µL per well). The plate was sealed, centrifuged (1 min, 1000 rpm), and allowed to sit at room temperature for 1 h. After the reaction (assumed product concentration: 5 mM), a Labcyte ECHO© 555 Liquid Handler was used to transfer the library of SFs to a Greiner 384 white low volume plate. […]

CAII [2] = biological target: T1, CAII; assay: Identification of site of covalent modification by tandem MS; set-up: purchased Sigma Aldrich C6624-500UG; host or cells: E. coli; conditions: for major site of covalent modification: 2 μM CAII, 50 μM SF, 24 h, 20 °C, trypsin digest LC-MS/MS; for minor site of covalent modification: N-terminal peptide 1MSHHWGYGK9
Description: Tandem MS analyses were subsequently employed for identification of the amino acid residue(s) that was covalently modified. Samples of CAII modified by the resynthesized and purified SFs 2d and 2e were digested using trypsin and analyzed by LC–MS/MS. This identified peptides 59ILNNGH*AFNVEFDDSQDKAVLK80 and 59ILNNGH*AFNVEFDDSQDK76 as the major site(s) of modification on His64 for both 2d (366 Da) (see Figure S6) and 2e (380 Da) (Figure 3b), respectively. Further to this, minor modifications were observed on the N-terminal peptide 1MSHHWGYGK9 at His3 (2d and 2e) and Tyr7 (2d only).
The (resynthesized and purified) SF hits (2d and 2e, 10 mM) were plated into a 384-well plate. Purified CAII was subsequently added across the plate. Final concentrations: 2 μM protein; 50 μM SF. The plate was sealed, centrifuged, and incubated at 20 °C for 24 h, and 15 μL aliquots were subsequently removed and analyzed by intact protein LC–MS. The remaining samples (1 μg) were separated by sodium dodecyl sulfate-polyacrylamide gel electrophoresis to remove excess unbound compounds. Gels were stained with colloidal Comassie InstantBlue, and bands corresponding to CAII were excised, reduced with TCEP (10 mM, 65 °C, 30 min), and alkylated with iodoacetamide (10 mM, rt, 30 min, dark). Samples were digested with trypsin (1:10 E/S, 37 °C, 16 h) in ammonium bicarbonate (100 mM). After removal of the supernatant, peptides were extracted using acetonitrile. Combined supernatants were centrifuged and acidified prior to injection into the LC–MS/MS system. Tandem MS spectra were searched for peptide matches against the sequence for CAII. Raw files were searched using trypsin as the enzyme. Masses corresponding to [SF – HF] were allowed as variable modification(s) on cysteine, histidine, lysine, tyrosine, serine, and threonine as well as the protein N-terminus. MS/MS spectra were manually validated and annotated. […]
4.2. Identification of the site of covalent modification by tandem MS (CAII)
The (resynthesized and purified) SF hits (2d and 2e) were plated into a Greiner 384 PP F-bottom plate from a 10 mM source in DMSO.
Purified CAII diluted from original stock into a buffer made up of HEPES (pH 7.5, 25 mM) and NaCl (50 mM) in distilled MS-grade water (50 µL per well) was subsequently added across the plate. Final concentrations: 2 µM protein; 50 µM SF. The plate was sealed, centrifuged (1 min, 1000 rpm), incubated at 20 °C for 24 h, and 15 µL aliquots were subsequently removed and analyzed by intact protein LC-MS. The remaining samples (1 μg) were separated by SDS-PAGE to remove excess unbound compound. Gels were stained with colloidal Comassie InstantBlue and bands corresponding to CAII were excised, reduced with 10 mM TCEP (65 °C, 30 mins), and alkylated with 10 mM iodoacetamide (r.t., 30 mins, dark). […]

Row | Compound | KI (inactivation) (CAII [1]) | kinact (CAII [1]) | kinact/KI (CAII [1]) | Ki (CAII [1]) | major site of covalent modification (CAII [2]) | minor site of covalent modification (CAII [2])
1 | CC(NC(=O)Cc1ccc(S(=O)(=O)F)cc1)c1cccc(S(N)(=O)=O)c1 (stereo not shown) [2b] | 8.9 µM | 3.2e-05 s⁻¹ | 3.6 M⁻¹ s⁻¹ | – | – | –
2 | NS(=O)(=O)Cc1cccc(CNC(=O)Cc2ccc(S(=O)(=O)F)cc2)c1 [2c] | 16 µM | 3.3e-05 s⁻¹ | 2 M⁻¹ s⁻¹ | – | – | –
3 | NS(=O)(=O)c1cccc(CNC(=O)Cc2ccc(S(=O)(=O)F)cc2)c1 [2d] | – | 3e-05 s⁻¹ | > 6.1 M⁻¹ s⁻¹ | < 5 µM | His64 | His3 and Tyr7
4 | NS(=O)(=O)c1ccc(CCNC(=O)Cc2ccc(S(=O)(=O)F)cc2)cc1 [2e] | – | 1.8e-05 s⁻¹ | > 3.6 M⁻¹ s⁻¹ | < 5 µM | His64 | His3
